# Read-outs that look alike come from different tables or passages of the source.
# Assays:
# [1] = system: ABC clinical isolates with SUL-DUR MIC > 4 µg/mL; experiment: microbe, parasite or virus in culture; assay type: cell-based, Acinetobacter baumannii-calcoaceticus complex
# In short: (§1)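 Broth microdilution MICs following CLSI methods, interpreted with CLSI breakpoints where available. Sulbactam tested as twofold dilutions combined with fixed 4 µg/mL durlobactam.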
# [2] = system: A. baumannii clinical isolates; experiment: microbe, parasite or virus in culture; assay type: cell-based; conditions: Acinetobacter baumannii
# In short: as §1
# [3] = system: A. nosocomialis clinical isolate; experiment: microbe, parasite or virus in culture; assay type: cell-based; conditions: Acinetobacter nosocomialis, isolate ARC7023 (IHMA 2118812), France, BSI, 2019, read-out: MIC
# In short: as §1
# [4] = system: A. pittii clinical isolates; experiment: microbe, parasite or virus in culture; assay type: cell-based; conditions: Acinetobacter pittii
# In short: as §1
# A. baumannii PBP3 S390T = system: A. baumannii PBP3 S390T; design: method as in McLeod et al. (2018); conditions: average ± SD, ref McLeod et al. (2018); cited from earlier work
# A. baumannii PBP3 S395F = system: A. baumannii PBP3 S395F; design: method as in McLeod et al. (2018); conditions: average ± SD, ref McLeod et al. (2018); cited from earlier work
# [5] = system: A. baumannii wild-type PBP3; experiment: Acylation rate constant (kinact/Ki), fluorescence anisotropy competition with BOCILLIN; conditions: Wildtype PBP3
compound,measurement,setting,value
C[C@@H](O)[C@H]1C(=O)N2C(C(=O)O)=C(S[C@@H]3CN[C@H](C(=O)N(C)C)C3)[C@H](C)[C@H]12 [meropenem],%NS (% non-susceptibility),"[1]; 64 non-clonal ABC isolates, 2023 CLSI breakpoints plus FDA breakpoint of 4 µg/mL for SUL-DUR",100%
same,MIC50,[1]; Acinetobacter,> 64 µg/mL
same,MIC90,[1]; Acinetobacter,> 64 µg/mL
same,MIC,"[1]; Acinetobacter, read-out: MIC Max",> 64 µg/mL
same,MIC,"[1]; Acinetobacter, read-out: MIC Min",32 µg/mL
same,MIC,"[2]; isolate ARC6644 (IHMA 1420327), Mexico, UTI, 2016, read-out: MIC",64 µg/mL
same,MIC,"[2]; isolate ARC6645 (IHMA 1435703), France, UTI, 2016, read-out: MIC",> 64 µg/mL
same,MIC,"[2]; isolate ARC6646 (IHMA 1484127), United States, RTI, 2016, read-out: MIC",64 µg/mL
same,MIC,"[2]; isolate ARC6647 (IHMA 1386786), Argentina, RTI, 2016, read-out: MIC",> 64 µg/mL
same,MIC,"[2]; isolate ARC6648 (IHMA 1407634), Spain, RTI, 2016, read-out: MIC",> 64 µg/mL
same,MIC,"[2]; isolate ARC6650 (IHMA 1457337), Argentina, RTI, 2016, read-out: MIC",64 µg/mL
same,MIC,"[2]; isolate ARC6652 (IHMA 1465642), Belgium, RTI, 2016, read-out: MIC",> 64 µg/mL
same,MIC,"[2]; isolate ARC6653 (IHMA 1308777), Vietnam, RTI, 2016, read-out: MIC",> 64 µg/mL
same,MIC,"[2]; isolate ARC6799 (IHMA 1562935), Spain, UTI, 2017, read-out: MIC",64 µg/mL
same,MIC,"[2]; isolate ARC6800 (IHMA 1557526), Turkey, RTI, 2017, read-out: MIC",64 µg/mL
same,MIC,"[2]; isolate ARC6801 (IHMA 1662094), Thailand, RTI, 2017, read-out: MIC",> 64 µg/mL
same,MIC,"[2]; isolate ARC6802 (IHMA 1557073), Spain, UTI, 2017, read-out: MIC",64 µg/mL
same,MIC,"[2]; isolate ARC6803 (IHMA 1589408), Belgium, UTI, 2017, read-out: MIC",> 64 µg/mL
same,MIC,"[2]; isolate ARC6805 (IHMA 1558650), United States, RTI, 2017, read-out: MIC",64 µg/mL
same,MIC,"[2]; isolate ARC6808 (IHMA 1557168), Spain, RTI, 2017, read-out: MIC",64 µg/mL
same,MIC,"[2]; isolate ARC6809 (IHMA 1699528), Guatemala, RTI, 2017, read-out: MIC",> 64 µg/mL
same,MIC,"[2]; isolate ARC6810 (IHMA 1699548), Guatemala, RTI, 2017, read-out: MIC",> 64 µg/mL
same,MIC,"[2]; isolate ARC6812 (IHMA 1699530), Guatemala, RTI, 2017, read-out: MIC",> 64 µg/mL
same,MIC,"[2]; isolate ARC6813 (IHMA 1699543), Guatemala, UTI, 2017, read-out: MIC",> 64 µg/mL
same,MIC,"[2]; isolate ARC6814 (IHMA 1699512), Guatemala, RTI, 2017, read-out: MIC",> 64 µg/mL
same,MIC,"[2]; isolate ARC6815 (IHMA 1699513), Guatemala, RTI, 2017, read-out: MIC",> 64 µg/mL
same,MIC,"[2]; isolate ARC6816 (IHMA 1699521), Guatemala, RTI, 2017, read-out: MIC",> 64 µg/mL
same,MIC,"[2]; isolate ARC6817 (IHMA 1699523), Guatemala, RTI, 2017, read-out: MIC",> 64 µg/mL
same,MIC,"[2]; isolate ARC6818 (IHMA 1683261), Thailand, RTI, 2017, read-out: MIC",> 64 µg/mL
same,MIC,"[2]; isolate ARC6819 (IHMA 1683267), Thailand, RTI, 2017, read-out: MIC",> 64 µg/mL
same,MIC,"[2]; isolate ARC6820 (IHMA 1647876), Argentina, RTI, 2017, read-out: MIC",64 µg/mL
same,MIC,"[2]; isolate ARC6821 (IHMA 1699517), Guatemala, RTI, 2017, read-out: MIC",> 64 µg/mL
same,MIC,"[2]; isolate ARC6822 (IHMA 1637626), Guatemala, RTI, 2017, read-out: MIC",> 64 µg/mL
same,MIC,"[2]; isolate ARC6823 (IHMA 1620872), Greece, SSSI, 2017, read-out: MIC",> 64 µg/mL
same,MIC,"[2]; isolate ARC6824 (IHMA 1625487), Argentina, BSI, 2017, read-out: MIC",> 64 µg/mL
same,MIC,"[2]; isolate ARC6937 (IHMA 1562926), Spain, UTI, 2017, read-out: MIC",64 µg/mL
same,MIC,"[2]; isolate ARC6950 (IHMA 1820064), Israel, RTI, 2018, read-out: MIC",> 64 µg/mL
same,MIC,"[2]; isolate ARC6953 (IHMA 1909827), Turkey, IAI, 2018, read-out: MIC",> 64 µg/mL
same,MIC,"[2]; isolate ARC6954 (IHMA 1838192), Guatemala, SSSI, 2018, read-out: MIC",> 64 µg/mL
same,MIC,"[2]; isolate ARC6955 (IHMA 1825425), United States, RTI, 2018, read-out: MIC",64 µg/mL
same,MIC,"[2]; isolate ARC7008 (IHMA 2009813), Thailand, BSI, 2019, read-out: MIC",> 64 µg/mL
same,MIC,"[2]; isolate ARC7009 (IHMA 2043611), United States, UTI, 2019, read-out: MIC",> 64 µg/mL
same,MIC,"[2]; isolate ARC7010 (IHMA 2043398), United States, RTI, 2019, read-out: MIC",> 64 µg/mL
same,MIC,"[2]; isolate ARC7011 (IHMA 2104553), Germany, RTI, 2019, read-out: MIC",> 64 µg/mL
same,MIC,"[2]; isolate ARC7012 (IHMA 2010001), Thailand, RTI, 2019, read-out: MIC",> 64 µg/mL
same,MIC,"[2]; isolate ARC7013 (IHMA 1962831), Argentina, RTI, 2019, read-out: MIC",> 64 µg/mL
same,MIC,"[2]; isolate ARC7014 (IHMA 2045328), Guatemala, IAI, 2019, read-out: MIC",> 64 µg/mL
same,MIC,"[2]; isolate ARC7015 (IHMA 2045327), Guatemala, UTI, 2019, read-out: MIC",> 64 µg/mL
same,MIC,"[2]; isolate ARC7016 (IHMA 2148441), Brazil, BSI, 2019, read-out: MIC",> 64 µg/mL
same,MIC,"[2]; isolate ARC7017 (IHMA 2148446), Brazil, BSI, 2019, read-out: MIC",> 64 µg/mL
same,MIC,"[2]; isolate ARC7018 (IHMA 2045454), Guatemala, IAI, 2019, read-out: MIC",> 64 µg/mL
same,MIC,"[2]; isolate ARC7019 (IHMA 2114463), Thailand, RTI, 2019, read-out: MIC",> 64 µg/mL
same,MIC,"[2]; isolate ARC7020 (IHMA 2045326), Guatemala, RTI, 2019, read-out: MIC",> 64 µg/mL
same,MIC,"[2]; isolate ARC7021 (IHMA 1966347), Guatemala, RTI, 2019, read-out: MIC",> 64 µg/mL
same,MIC,"[2]; isolate ARC7022 (IHMA 2045319), Guatemala, IAI, 2019, read-out: MIC",> 64 µg/mL
same,MIC,"[2]; isolate ARC7024 (IHMA 2059448), Turkey, RTI, 2019, read-out: MIC",> 64 µg/mL
same,MIC,"[2]; isolate ARC7025 (IHMA 2002121), Spain, RTI, 2019, read-out: MIC",64 µg/mL
same,MIC,"[2]; isolate ARC7026 (IHMA 2104494), Guatemala, BSI, 2019, read-out: MIC",> 64 µg/mL
same,MIC,"[2]; isolate ARC7082 (IHMA 2160640), Belgium, BSI, 2020, read-out: MIC",> 64 µg/mL
same,MIC,"[2]; isolate ARC7083 (IHMA 2163687), United States, RTI, 2020, read-out: MIC",64 µg/mL
same,MIC,"[2]; isolate ARC7084 (IHMA 2189596), Germany, RTI, 2020, read-out: MIC",> 64 µg/mL
same,MIC,"[2]; isolate ARC7085 (IHMA 2205747), Guatemala, IAI, 2020, read-out: MIC",> 64 µg/mL
same,MIC,"[2]; isolate ARC7086 (IHMA 2207563), Israel, RTI, 2020, read-out: MIC",32 µg/mL
same,MIC,"[2]; isolate ARC7088 (IHMA 2215554), Turkey, BSI, 2020, read-out: MIC",> 64 µg/mL
same,MIC,"[2]; isolate ARC7089 (IHMA 2240345), Argentina, BSI, 2020, read-out: MIC",64 µg/mL
same,MIC,"[2]; isolate ARC7090 (IHMA 2244410), Poland, RTI, 2020, read-out: MIC",> 64 µg/mL
same,MIC,"[2]; isolate ARC7091 (IHMA 2244564), Australia, RTI, 2020, read-out: MIC",> 64 µg/mL
same,MIC,"[2]; isolate ARC7092 (IHMA 2258772), United States, BSI, 2020, read-out: MIC",> 64 µg/mL
same,MIC,"[2]; isolate ARC7093 (IHMA 2258783), United States, RTI, 2020, read-out: MIC",> 64 µg/mL
same,MIC,"[2]; isolate ARC7094 (IHMA 2296423), Turkey, RTI, 2020, read-out: MIC",64 µg/mL
same,MIC,"[2]; isolate ARC7095 (IHMA 2320843), Turkey, BSI, 2020, read-out: MIC",32 µg/mL
same,MIC,"[2]; isolate ARC7156 (IHMA 2455450), Greece, RTI, 2021, read-out: MIC",> 64 µg/mL
same,MIC,"[2]; isolate ARC7158 (IHMA 2523738), Italy, BSI, 2021, read-out: MIC",> 64 µg/mL
same,MIC,"[2]; isolate ARC7159 (IHMA 2456229), Malaysia, RTI, 2021, read-out: MIC",> 64 µg/mL
same,MIC,"[2]; isolate ARC7160 (IHMA 2458626), Thailand, RTI, 2021, read-out: MIC",> 64 µg/mL
same,MIC,"[2]; isolate ARC7161 (IHMA 2429252), Ukraine, RTI, 2021, read-out: MIC",64 µg/mL
same,MIC,"[2]; isolate ARC7162 (IHMA 2411847), United States, BSI, 2021, read-out: MIC",> 64 µg/mL
same,MIC,"[2]; isolate ARC7163 (IHMA 2477704), United States, BSI, 2021, read-out: MIC",> 64 µg/mL
same,MIC,[3],> 64 µg/mL
same,MIC,"[4]; isolate ARC6949 (IHMA 1898982), Romania, RTI, 2018, read-out: MIC",> 64 µg/mL
same,MIC,"[4]; isolate ARC6951 (IHMA 1776233), Philippines, RTI, 2018, read-out: MIC",> 64 µg/mL
same,MIC,"[4]; isolate ARC6952 (IHMA 1899008), Romania, RTI, 2018, read-out: MIC",> 64 µg/mL
same,MIC,"[4]; isolate ARC7087 (IHMA 2212062), Colombia, BSI, 2020, read-out: MIC",> 64 µg/mL
same,k inact/K i,A. baumannii PBP3 S390T,"16,000 ± 6,000 ([3]) M^-1s^-1"
same,k inact/K i,A. baumannii PBP3 S395F,"1,500 ± 200 ([3]) M^-1s^-1"
same,% WT,[5],100%
same,k inact/K i,[5]; average ± SD,"5,000 ± 1,000 ([10]) M^-1s^-1"
